Marks after values point to notes of the source that are not given here.
Key:
HGT-1 cells = assay: guaifenesin-induced acid (proton) secretion in HGT-1 cells; format: cell-based, human; conditions: for proton secretory activity (log2 transformed ratio of treated vs. untreated cells): mean ± SEM
Description: Human gastric tumour cell line 1 (HGT-1; Laboisse C. L.; Augeron C.; Couturier-Turpin M. H.; Gespach C.; Cheret A. M.; Potet F., Characterization of a newly established human gastric cancer cell line HGT-1 bearing histamine H2-receptors, Canc. Res., 1982, 42, 1541 to 1548) is a suitable screening tool for detecting the interaction of bitter agents and bitter modulating substances (Liszt, K. I.; Hans, J.; Ley, J. P.; Kock, E.; Somoza, V., Characterization of bitter compounds via modulation of proton secretion in human gastric parietal cells in culture, J. Agric. Food Chem., 2018, 66 (10), 2295-2300.). Therefore, the effect of eriodictyol on guaifenesin-induced acid secretion in the HGT-1 cell line was determined to predict the modulation of guaifenesin-induced bitterness by eriodictyol. To this aim, HGT-1 cells were cultured under standard conditions and passaged at ca. 80% confluence. […] HGT-1 cells were pre-loaded with (acetyloxy) methyl-3-(acetyloxy)-10-(dimethylamino)-3′-oxo-spiro[7H-benzo [c]xanthene-7,1′(3H)-isobenzofuran]-ar′-carboxylate and incubated in 130 mM NaCl 130, 4.7 mM KCl, 1.3 mM CaCl2, 1.2 mM MgSO4, 1.2 mM KH2PO4, 11.7 mM glucose, 10 mM HEPES 10, 20 μM 4,4′-Diisothiocyanatostilbene-2,2′-disulfonic acid disodium and 20 μM 5-(N-Ethyl-N-isopropyl) amiloride at pH 7.4. Fluorescence recordings were performed with an excitation wavelength of 488 nm and monitoring the emission wavelengths of 580 nm and 640 nm, respectively, each with a 20 nm bandwidth. […]
(§1) The data in Table 1 are presented as mean±SEM derived from 7 biological replicates and 14 to 21 technical replicates. Outliers were identified using the Nalimov test, statistical significance was tested one-way ANOVA with Tukey's range test for multiple comparisons and Bonferroni correction, establishing the threshold for significance at p<0.0071. Accordingly, data are marked with * (p<0.0071), ** (p<0.0014) or *** (p<0.00014). Control: untreated cells
as §1, with “Table 2” for “Table 1”

guaifenesin bitterness = conditions: 200 ppm (0.2 mg/ml) HED against 13 mg/ml guaifenesin; cited from earlier work
trained sensory panel = assay: sensory panel test of guaifenesin-induced bitterness perception (sip and spit, randomized comparison); format: in vivo, human; conditions: guaifenesin used in combination with eriodictyol; refers to Table 3
Procedure: To verify the effect of eriodictyol on guaifenesin-induced bitterness perception, an aqueous solution of 13 g/l guaifenesin (1) was tested against an aqueous solution containing 13 g/l guaifenesin and 20 mg/l eriodictyol (2) or 100 mg/l homoeriodictyol (3). The test was conducted as a randomized comparison test in a trained sensory panel (n=20 to 30) via a sip and spit procedure. The panelists tasted both solutions in a blinded fashion and rated bitterness on a scale of 0 to 100.

COc1cc([C@@H]2CC(=O)c3c(O)cc(O)cc3O2)ccc1O (stereo in doubt) [homoeriodictyol, (2S)-/(2R)-5,7-Dihydroxy-2-(4-hydroxy-3-methoxyphenyl)-4-chromanone]
proton secretory activity (log2 transformed ratio of treated vs. untreated cells) (HGT-1 cells; 10 mM guaifenesin ± 3 μM homoeriodictyol, timepoint 0 min): −0.2514 ± 0.0260
proton secretory activity (log2 transformed ratio of treated vs. untreated cells) (HGT-1 cells; 10 mM guaifenesin ± 3 μM homoeriodictyol, timepoint 5 min): −0.1923 ± 0.0304
proton secretory activity (log2 transformed ratio of treated vs. untreated cells) (HGT-1 cells; 10 mM guaifenesin ± 3 μM homoeriodictyol, timepoint 10 min): −0.2547 ± 0.0320
proton secretory activity (log2 transformed ratio of treated vs. untreated cells) (HGT-1 cells; 10 mM guaifenesin ± 3 μM homoeriodictyol, timepoint 15 min): −0.2538 ± 0.0317
proton secretory activity (log2 transformed ratio of treated vs. untreated cells) (HGT-1 cells; 10 mM guaifenesin ± 3 μM homoeriodictyol, timepoint 20 min): −0.2677 ± 0.0264
proton secretory activity (log2 transformed ratio of treated vs. untreated cells) (HGT-1 cells; 10 mM guaifenesin ± 3 μM homoeriodictyol, timepoint 25 min): −0.2472 ± 0.0296
proton secretory activity (log2 transformed ratio of treated vs. untreated cells) (HGT-1 cells; 10 mM guaifenesin ± 3 μM homoeriodictyol, timepoint 30 min): −0.2493 ± 0.0300
proton secretory activity (log2 transformed ratio of treated vs. untreated cells) (HGT-1 cells; 10 mM guaifenesin ± 30 μM homoeriodictyol, timepoint 0 min): −0.2845 ± 0.0235
proton secretory activity (log2 transformed ratio of treated vs. untreated cells) (HGT-1 cells; 10 mM guaifenesin ± 30 μM homoeriodictyol, timepoint 5 min): −0.1702 ± 0.0265
proton secretory activity (log2 transformed ratio of treated vs. untreated cells) (HGT-1 cells; 10 mM guaifenesin ± 30 μM homoeriodictyol, timepoint 10 min): −0.1272 ± 0.0263*
proton secretory activity (log2 transformed ratio of treated vs. untreated cells) (HGT-1 cells; 10 mM guaifenesin ± 30 μM homoeriodictyol, timepoint 15 min): −0.1934 ± 0.0259
proton secretory activity (log2 transformed ratio of treated vs. untreated cells) (HGT-1 cells; 10 mM guaifenesin ± 30 μM homoeriodictyol, timepoint 20 min): −0.2282 ± 0.0260
proton secretory activity (log2 transformed ratio of treated vs. untreated cells) (HGT-1 cells; 10 mM guaifenesin ± 30 μM homoeriodictyol, timepoint 25 min): −0.1601 ± 0.0206
proton secretory activity (log2 transformed ratio of treated vs. untreated cells) (HGT-1 cells; 10 mM guaifenesin ± 30 μM homoeriodictyol, timepoint 30 min): −0.2187 ± 0.0244
inhibition of proton secretion compared with eriodictyol (HGT-1 cells; co-incubation of 10 mM guaifenesin with 30 μM homoeriodictyol): did not exhibit such a pronounced inhibition
change in proton secretion compared to 10 mM guaifenesin alone (HGT-1 cells; co-incubation of 10 mM guaifenesin with 30 μM homoeriodictyol, only the time point at 10 min (p<0.0071)): significant decrease
reduction in guaifenesin bitterness (guaifenesin bitterness): about 40%

O=C1CC(c2ccc(O)c(O)c2)Oc2cc(O)cc(O)c21 [eriodictyol, (2S)-/(2R)-2-(3,4-dihydroxyphenyl)-5,7-dihydroxy-4-chromanone]
proton secretory activity (log2 transformed ratio of treated vs. untreated cells) (HGT-1 cells; 10 mM guaifenesin + 3 μM eriodictyol, timepoint 0 min): −0.3389 ± 0.0274
proton secretory activity (log2 transformed ratio of treated vs. untreated cells) (HGT-1 cells; 10 mM guaifenesin + 3 μM eriodictyol, timepoint 5 min): −0.3351 ± 0.0246
proton secretory activity (log2 transformed ratio of treated vs. untreated cells) (HGT-1 cells; 10 mM guaifenesin + 3 μM eriodictyol, timepoint 10 min): −0.2874 ± 0.0241
proton secretory activity (log2 transformed ratio of treated vs. untreated cells) (HGT-1 cells; 10 mM guaifenesin + 3 μM eriodictyol, timepoint 15 min): −0.2595 ± 0.0264
proton secretory activity (log2 transformed ratio of treated vs. untreated cells) (HGT-1 cells; 10 mM guaifenesin + 3 μM eriodictyol, timepoint 20 min): −0.2622 ± 0.0286
proton secretory activity (log2 transformed ratio of treated vs. untreated cells) (HGT-1 cells; 10 mM guaifenesin + 3 μM eriodictyol, timepoint 25 min): −0.3259 ± 0.0279
proton secretory activity (log2 transformed ratio of treated vs. untreated cells) (HGT-1 cells; 10 mM guaifenesin + 3 μM eriodictyol, timepoint 30 min): −0.3237 ± 0.0296
proton secretory activity (log2 transformed ratio of treated vs. untreated cells) (HGT-1 cells; 10 mM guaifenesin + 30 μM eriodictyol, timepoint 0 min): −0.2324 ± 0.0297
proton secretory activity (log2 transformed ratio of treated vs. untreated cells) (HGT-1 cells; 10 mM guaifenesin + 30 μM eriodictyol, timepoint 5 min): −0.2396 ± 0.0252
proton secretory activity (log2 transformed ratio of treated vs. untreated cells) (HGT-1 cells; 10 mM guaifenesin + 30 μM eriodictyol, timepoint 10 min): −0.1630 ± 0.0308***
proton secretory activity (log2 transformed ratio of treated vs. untreated cells) (HGT-1 cells; 10 mM guaifenesin + 30 μM eriodictyol, timepoint 15 min): −0.1472 ± 0.0302**
proton secretory activity (log2 transformed ratio of treated vs. untreated cells) (HGT-1 cells; 10 mM guaifenesin + 30 μM eriodictyol, timepoint 20 min): −0.1496 ± 0.0269**
proton secretory activity (log2 transformed ratio of treated vs. untreated cells) (HGT-1 cells; 10 mM guaifenesin + 30 μM eriodictyol, timepoint 25 min): −0.1478 ± 0.0283***
proton secretory activity (log2 transformed ratio of treated vs. untreated cells) (HGT-1 cells; 10 mM guaifenesin + 30 μM eriodictyol, timepoint 30 min): −0.1886 ± 0.0272*
change in proton secretory activity of HGT-1 cells compared to 10 mM guaifenesin alone (HGT-1 cells; co-incubation of 10 mM guaifenesin with 30 μM eriodictyol, from 10 min onwards): significant decrease
reduction of bitterness of guaifenesin (trained sensory panel): ≥ 35%

COc1ccccc1OCC(O)CO (centres unmarked) [guaifenesin, 3-(2-methoxyphenoxy-) 1,2-propanediol]
proton secretory activity (log2 transformed ratio of treated vs. untreated cells) (HGT-1 cells; 10 mM guaifenesin alone, Table 1, timepoint 0 min): −0.3130 ± 0.0306
proton secretory activity (log2 transformed ratio of treated vs. untreated cells) (HGT-1 cells; 10 mM guaifenesin alone, Table 1, timepoint 5 min): −0.2720 ± 0.0225
proton secretory activity (log2 transformed ratio of treated vs. untreated cells) (HGT-1 cells; 10 mM guaifenesin alone, Table 1, timepoint 10 min): −0.3283 ± 0.0253
proton secretory activity (log2 transformed ratio of treated vs. untreated cells) (HGT-1 cells; 10 mM guaifenesin alone, Table 1, timepoint 15 min): −0.2945 ± 0.0277
proton secretory activity (log2 transformed ratio of treated vs. untreated cells) (HGT-1 cells; 10 mM guaifenesin alone, Table 1, timepoint 20 min): −0.2885 ± 0.0266
proton secretory activity (log2 transformed ratio of treated vs. untreated cells) (HGT-1 cells; 10 mM guaifenesin alone, Table 1, timepoint 25 min): −0.3135 ± 0.0260
proton secretory activity (log2 transformed ratio of treated vs. untreated cells) (HGT-1 cells; 10 mM guaifenesin alone, Table 1, timepoint 30 min): −0.3241 ± 0.0280
proton secretory activity (log2 transformed ratio of treated vs. untreated cells) (HGT-1 cells; 10 mM guaifenesin alone, Table 2, timepoint 0 min): −0.2712 ± 0.0190
proton secretory activity (log2 transformed ratio of treated vs. untreated cells) (HGT-1 cells; 10 mM guaifenesin alone, Table 2, timepoint 5 min): −0.2170 ± 0.0217
proton secretory activity (log2 transformed ratio of treated vs. untreated cells) (HGT-1 cells; 10 mM guaifenesin alone, Table 2, timepoint 10 min): −0.2543 ± 0.0268
proton secretory activity (log2 transformed ratio of treated vs. untreated cells) (HGT-1 cells; 10 mM guaifenesin alone, Table 2, timepoint 15 min): −0.2518 ± 0.0274
proton secretory activity (log2 transformed ratio of treated vs. untreated cells) (HGT-1 cells; 10 mM guaifenesin alone, Table 2, timepoint 20 min): −0.2081 ± 0.0243
proton secretory activity (log2 transformed ratio of treated vs. untreated cells) (HGT-1 cells; 10 mM guaifenesin alone, Table 2, timepoint 25 min): −0.2454 ± 0.0265
proton secretory activity (log2 transformed ratio of treated vs. untreated cells) (HGT-1 cells; 10 mM guaifenesin alone, Table 2, timepoint 30 min): −0.2730 ± 0.0241

From patent US20240382417A1, “Compositions Comprising Guaifenesin and Eriodictyol” (SYMRISE AG, priority 2018, published 2024)
